How the values were obtained:
KRAS G12S = KRAS G12S (Homo sapiens (Human), UniProt P01116+P62937, G12S); test: Ras-Raf (BRAF RBD) disruption / FRET / MOA assay, KRAS G12S; type: biochemical; conditions: Ras-Raf disruption/FRET/MOA assay; class symbols; read-out: KRAS G12S FRET data IC50
How it was run: (§1)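 A 10-point, 3-fold dilution series topping at 30 μM final was incubated 3 h at 25° C with the Ras/cyclophilin A/BRAF RBD mixture.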

KRAS G12D = KRAS G12D (Homo sapiens (Human), UniProt P01116+P62937, G12D); test: Ras-Raf (BRAF RBD) disruption / FRET / MOA assay, KRAS G12D; type: biochemical; conditions: Ras-Raf disruption/FRET/MOA assay; class symbols; read-out: KRAS G12D FRET data IC50
Chain of KRAS G12D (P01116-2 other isoform, or with tags, fused parts or gaps G12D): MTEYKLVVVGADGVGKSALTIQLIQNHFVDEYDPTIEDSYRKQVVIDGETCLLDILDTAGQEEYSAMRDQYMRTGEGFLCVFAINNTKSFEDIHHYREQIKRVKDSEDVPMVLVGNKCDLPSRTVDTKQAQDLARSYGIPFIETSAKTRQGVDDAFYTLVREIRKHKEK
Chain of KRAS G12D (P62937 whole entry): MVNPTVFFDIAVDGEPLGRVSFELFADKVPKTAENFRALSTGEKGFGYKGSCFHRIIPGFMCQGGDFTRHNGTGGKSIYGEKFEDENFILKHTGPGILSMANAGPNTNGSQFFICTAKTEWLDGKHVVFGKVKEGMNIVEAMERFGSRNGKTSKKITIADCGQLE
How it was run: as §1

K-Ras G13C = K-Ras G13C (Homo sapiens (Human), UniProt P01116+P62937, G13C); test: Ras-Raf (BRAF RBD) disruption / FRET / MOA assay, KRAS G13C; type: biochemical; conditions: KRAS G13C; Ras-Raf disruption/FRET/MOA assay; read-out: IC50* KRAS G13C FRET data
Chain of K-Ras G13C (P01116-2 other isoform, or with tags, fused parts or gaps G13C): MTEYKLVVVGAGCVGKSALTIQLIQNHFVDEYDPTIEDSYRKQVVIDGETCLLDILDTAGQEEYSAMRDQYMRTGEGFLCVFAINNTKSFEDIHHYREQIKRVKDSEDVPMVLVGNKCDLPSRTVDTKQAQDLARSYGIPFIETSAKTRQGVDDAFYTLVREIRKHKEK
Chain of K-Ras G13C (P62937 whole entry): as the sequence (P62937 whole entry) above
How it was run: as §1

[1] = test system: NCI-H358 cells (K-Ras G12C); test: Potency assay: pERK in NCI-H358 cells; type: cell-based, human; conditions: Homo sapiens, NCI-H358; H358 KRAS G12C; read-out: pERK EC50
How it was run: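 pERK decrease read by AlphaLISA SureFire p-ERK1/2 or In-Cell Western after 4 h compound exposure at 37 °C, 5% CO2.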

K-Ras G12C = K-Ras G12C (Homo sapiens (Human), UniProt P01116+P62937, G12C); test: Ras-Raf (BRAF RBD) disruption / FRET / MOA assay, KRAS G12C; type: biochemical; conditions: KRAS G12C; Ras-Raf disruption/FRET/MOA assay; read-out: IC50* KRAS G12C FRET data
Chain of K-Ras G12C (P01116-2 other isoform, or with tags, fused parts or gaps G12C): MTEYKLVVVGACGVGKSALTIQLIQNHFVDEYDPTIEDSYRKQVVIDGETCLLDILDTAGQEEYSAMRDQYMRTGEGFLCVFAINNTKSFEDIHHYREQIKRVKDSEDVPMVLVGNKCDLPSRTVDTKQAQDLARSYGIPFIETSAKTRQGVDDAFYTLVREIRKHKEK
Chain of K-Ras G12C (P62937 whole entry): as the sequence (P62937 whole entry) above
How it was run: as §1

NRAS G12C = NRAS G12C (Homo sapiens (Human), UniProt P01111+P62937, G12C); test: Ras-Raf (BRAF RBD) disruption / FRET / MOA assay, NRAS G12C; type: biochemical; conditions: read-out: IC50* NRAS G12C FRET data
Chain of NRAS G12C (P01111 whole entry G12C): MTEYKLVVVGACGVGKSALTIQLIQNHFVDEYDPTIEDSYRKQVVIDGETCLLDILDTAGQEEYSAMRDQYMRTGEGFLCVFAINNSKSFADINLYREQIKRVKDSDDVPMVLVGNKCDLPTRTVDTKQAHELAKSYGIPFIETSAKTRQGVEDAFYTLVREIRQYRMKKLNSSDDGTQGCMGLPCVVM
Chain of NRAS G12C (P62937 whole entry): as the sequence (P62937 whole entry) above
How it was run: as §1

NCI-H358 (K-Ras G12C) = test: CellTiter-Glo cell viability assay, NCI-H358; type: cell-based, human; conditions: Homo sapiens, NCI-H358, 120 h, NCI-H358, 5-day treatment; class symbols; read-out: Additional H358 Cell Viability assay data (K-Ras G12C, IC50)
How it was run: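 Compounds dispensed directly onto seeded K-Ras mutant cells; plates read on day 5 after ~30 min equilibration to room temperature, by CellTiter-Glo luminescence. Signal normalized as (sample/mean DMSO)×100, then fitted to a four-parameter logistic curve.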

KRAS G12V = KRAS G12V (Homo sapiens (Human), UniProt P01116+P62937, G12V); test: Ras-Raf (BRAF RBD) disruption / FRET / MOA assay, KRAS G12V; type: biochemical; conditions: read-out: IC50* KRAS G12V FRET data
Chain of KRAS G12V (P01116-2 other isoform, or with tags, fused parts or gaps G12V): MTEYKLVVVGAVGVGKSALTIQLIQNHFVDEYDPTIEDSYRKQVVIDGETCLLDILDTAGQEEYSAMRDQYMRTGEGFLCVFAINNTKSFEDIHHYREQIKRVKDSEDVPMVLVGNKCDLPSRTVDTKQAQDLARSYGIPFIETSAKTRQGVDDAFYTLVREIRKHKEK
Chain of KRAS G12V (P62937 whole entry): as the sequence (P62937 whole entry) above
How it was run: as §1

KRAS G13D = KRAS G13D (Homo sapiens (Human), UniProt P01116+P62937, G13D); test: Ras-Raf (BRAF RBD) disruption / FRET / MOA assay, KRAS G13D; type: biochemical; conditions: read-out: IC50* KRAS G13D FRET data
Chain of KRAS G13D (P01116-2 other isoform, or with tags, fused parts or gaps G13D): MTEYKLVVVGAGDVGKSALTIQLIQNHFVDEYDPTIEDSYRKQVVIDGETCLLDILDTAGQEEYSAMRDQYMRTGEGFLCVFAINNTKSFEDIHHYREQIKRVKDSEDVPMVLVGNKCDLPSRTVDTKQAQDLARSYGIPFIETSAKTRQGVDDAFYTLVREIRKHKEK
Chain of KRAS G13D (P62937 whole entry): as the sequence (P62937 whole entry) above
How it was run: as §1

KRAS WT = KRAS WT (Homo sapiens (Human), UniProt P01116+P62937); test: Ras-Raf (BRAF RBD) disruption / FRET / MOA assay, KRAS WT; type: biochemical; conditions: read-out: IC50* KRAS WT FRET data
Chain of KRAS WT (P01116-2 other isoform, or with tags, fused parts or gaps): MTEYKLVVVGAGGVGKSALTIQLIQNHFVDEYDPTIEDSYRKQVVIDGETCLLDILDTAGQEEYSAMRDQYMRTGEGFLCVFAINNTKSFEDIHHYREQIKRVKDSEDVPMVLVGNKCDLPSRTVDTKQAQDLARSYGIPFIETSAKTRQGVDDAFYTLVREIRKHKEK
Chain of KRAS WT (P62937 whole entry): as the sequence (P62937 whole entry) above
How it was run: as §1

Chain of KRAS G12S (P01116-2 other isoform, or with tags, fused parts or gaps G12S): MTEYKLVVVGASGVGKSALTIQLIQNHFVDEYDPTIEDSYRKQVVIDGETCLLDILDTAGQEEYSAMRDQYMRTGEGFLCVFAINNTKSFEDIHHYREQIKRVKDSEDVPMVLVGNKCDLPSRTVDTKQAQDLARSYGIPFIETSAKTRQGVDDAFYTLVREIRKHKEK
Chain of KRAS G12S (P62937 whole entry): as the sequence (P62937 whole entry) above

| SMILES | IC50 (KRAS G12S) [nM] | IC50 (KRAS G12D) [nM] | IC50 (K-Ras G13C) [nM] | EC50 [1] [nM] | IC50 (K-Ras G12C) [nM] | IC50 (NRAS G12C) [nM] | IC50 (NCI-H358 (K-Ras G12C)) [nM] | IC50 (KRAS G12V) [nM] | IC50 (KRAS G13D) [nM] | IC50 (KRAS WT) [nM] |
| --- | --- | --- | --- | --- | --- | --- | --- | --- | --- | --- |
| C=CC(=O)N1C[C@H](F)[C@](F)(C(=O)N(C)[C@H](C(=O)N[C@H]2Cc3cccc(c3)-c3ccc4c(c3)c(c(-c3cccnc3[C@H](C)OC)n4CC)CC(C)(C)COC(=O)[C@@H]3CCCN(N3)C2=O)C(C)C)C1 (atropisomer, axis not shown) [Example A397] | 100 to 1000 | 1000 to 10000 | 10 to 100 | < 5000 | 10 to 100 | 10 to 100 | < 10 | 100 to 1000 | 100 to 1000 | 100 to 1000 |
| C=CC(=O)N1CC[C@H](C(=O)N(CC)[C@H](C(=O)N[C@H]2Cc3cccc(c3)-c3ccc4c(c3)c(c(-c3cccnc3[C@H](C)OC)n4CC)CC(C)(C)COC(=O)[C@@H]3CCCN(N3)C2=O)C(C)C)C1 (atropisomer, axis not shown) [Example A399] | 1000 to 10000 | > 10000 | 1000 to 10000 | < 5000 | 100 to 1000 | 100 to 1000 | 10 to 100 | 1000 to 10000 | 1000 to 10000 | 1000 to 10000 |
| C=CC(=O)N1C[C@H](C(=O)N(C)[C@H](C(=O)N[C@H]2Cc3cccc(c3)-c3ccc4c(c3)c(c(-c3cccnc3[C@H](C)OC)n4CC)CC(C)(C)COC(=O)[C@@H]3CCCN(N3)C2=O)C(C)C)[C@H](C(F)(F)F)C1 (atropisomer, axis not shown) [Example A400] | > 10000 | > 10000 | 1000 to 10000 | < 5000 | 10 to 100 | 10 to 100 | 10 to 100 | > 10000 | > 10000 | > 10000 |
| CC#CC(=O)N1C[C@H](C)[C@H](C(=O)N(C)[C@H](C(=O)N[C@H]2Cc3cccc(c3)-c3ccc4c(c3)c(c(-c3cccnc3[C@H](C)OC)n4CC)CC(C)(C)COC(=O)[C@@H]3CCCN(N3)C2=O)C2CCCC2)C1 (atropisomer, axis not shown) [Example A402] | 1000 to 10000 | > 10000 | 1000 to 10000 | < 5000 | 100 to 1000 | 100 to 1000 | 10 to 100 | 1000 to 10000 | > 10000 | 1000 to 10000 |
| C=CC(=O)N1C[C@@H](C)N(C(=O)N(C)[C@H](C(=O)N[C@H]2Cc3nc(cs3)-c3ccc4c(c3)c(c(-c3cccnc3[C@H](C)OC)n4CC)CC(C)(C)COC(=O)[C@@H]3CCCN(N3)C2=O)C(C)C)C[C@H]1C (atropisomer, axis not shown) [Example A406] | 100 to 1000 | 1000 to 10000 | 100 to 1000 | < 5000 | 100 to 1000 | 100 to 1000 | 10 to 100 | 100 to 1000 | 100 to 1000 | 100 to 1000 |
| C=CC(=O)N1C[C@@H]2C[C@H]1CN2C(=O)N(C)[C@H](C(=O)N[C@H]1Cc2nc(cs2)-c2ccc3c(c2)c(c(-c2cccnc2[C@H](C)OC)n3CC)CC(C)(C)COC(=O)[C@@H]2CCCN(N2)C1=O)C(C)C (atropisomer, axis not shown) [Example A409] | 100 to 1000 | 100 to 1000 | 100 to 1000 | < 5000 | 100 to 1000 | 100 to 1000 | 10 to 100 | 100 to 1000 | 1000 to 10000 | 100 to 1000 |
| CCn1c(-c2cccnc2[C@H](C)OC)c2c3cc(ccc31)-c1csc(n1)C[C@H](NC(=O)[C@H](C(C)C)N1CC[C@]3(CCN(C(=O)C#CC(C)(C)N(C)C)C3)C1=O)C(=O)N1CCC[C@H](N1)C(=O)OCC(C)(C)C2 (atropisomer, axis not shown) [Example A411] | 1000 to 10000 | 1000 to 10000 | 100 to 1000 | < 5000 | < 10 | < 10 | < 10 | 1000 to 10000 | 1000 to 10000 | 1000 to 10000 |
| CC#CC(=O)N1CC[C@]2(CCN([C@H](C(=O)N[C@H]3Cc4cccc(c4)-c4ccc5c(c4)c(c(-c4cccnc4[C@H](C)OC)n5CC)CC(C)(C)COC(=O)[C@@H]4CCCN(N4)C3=O)C(C)C)C2=O)C1 (atropisomer, axis not shown) [Example A412] | 1000 to 10000 | 1000 to 10000 | 100 to 1000 | < 5000 | 100 to 1000 | 100 to 1000 | 10 to 100 | 1000 to 10000 | 1000 to 10000 | 1000 to 10000 |
| CC#CC(=O)N1C[C@H](C)[C@H](C(=O)N(C)[C@H](C(=O)N[C@H]2Cc3cccc(c3)-c3ccc4c(c3)c(c(-c3cccnc3[C@H](C)OC)n4CC)CC(C)(C)COC(=O)[C@@H]3CCCN(N3)C2=O)C(C)C)C1 (atropisomer, axis not shown) [Example A413] | 1000 to 10000 | > 10000 | 1000 to 10000 | < 5000 | 100 to 1000 | 100 to 1000 | 10 to 100 | 1000 to 10000 | 1000 to 10000 | 1000 to 10000 |
| CCn1c(-c2cccnc2[C@H](C)OC)c2c3cc(ccc31)-c1cccc(c1)C[C@H](NC(=O)[C@H](C(C)C)N1CC[C@@]3(CCN(C(=O)C#CC(C)(C)N(C)C)C3)C1=O)C(=O)N1CCC[C@H](N1)C(=O)OCC(C)(C)C2 (atropisomer, axis not shown) [Example A414] | 1000 to 10000 | > 10000 | 1000 to 10000 | < 5000 | < 10 | < 10 | < 10 | 1000 to 10000 | > 10000 | > 10000 |
| C=CC(=O)N1CCC12CCN(C(=O)N(C)[C@H](C(=O)N[C@H]1Cc3nc(cs3)-c3ccc4c(c3)c(c(-c3cccnc3[C@H](C)OC)n4CC)CC(C)(C)COC(=O)[C@@H]3CCCN(N3)C1=O)C(C)C)CC2 (atropisomer, axis not shown) [Example A415] | 100 to 1000 | 1000 to 10000 | 100 to 1000 | < 5000 | 100 to 1000 | 100 to 1000 | 10 to 100 | 100 to 1000 | 100 to 1000 | 100 to 1000 |
| C=CC(=O)N1C[C@@H](C)N(C(=O)N(C)[C@H](C(=O)N[C@H]2Cc3nc(cs3)-c3ccc4c(c3)c(c(-c3cccnc3[C@H](C)OC)n4CC)CC(C)(C)COC(=O)[C@@H]3CCCN(N3)C2=O)C(C)C)C[C@@H]1C (atropisomer, axis not shown) [Example A418] | 10 to 100 | 100 to 1000 | 10 to 100 | < 5000 | 10 to 100 | 10 to 100 | 10 to 100 | 10 to 100 | 100 to 1000 | 10 to 100 |
| C=CC(=O)N1CC2(C1)CN(C(=O)N(C)[C@H](C(=O)N[C@H]1Cc3nc(cs3)-c3ccc4c(c3)c(c(-c3cccnc3[C@H](C)OC)n4CC)CC(C)(C)COC(=O)[C@@H]3CCCN(N3)C1=O)C(C)C)C2 (atropisomer, axis not shown) [Example A419] | 100 to 1000 | 1000 to 10000 | 100 to 1000 | < 5000 | 100 to 1000 | 10 to 100 | < 10 | 100 to 1000 | 1000 to 10000 | 100 to 1000 |
| C=CC(=O)N1CCN(C(=O)N(C)[C@H](C(=O)N[C@H]2Cc3nc(cs3)-c3ccc4c(c3)c(c(-c3cccnc3[C@H](C)OC)n4CC)CC(C)(C)COC(=O)[C@@H]3CCCN(N3)C2=O)C(C)C)[C@@H](C)C1 (atropisomer, axis not shown) [Example A421] | 100 to 1000 | 1000 to 10000 | 10 to 100 | < 5000 | 10 to 100 | 10 to 100 | 10 to 100 | 100 to 1000 | 100 to 1000 | 100 to 1000 |
| C=CC(=O)NC[C@@H]1CCN1C(=O)N(C)[C@H](C(=O)N[C@H]1Cc2nc(cs2)-c2ccc3c(c2)c(c(-c2cccnc2[C@H](C)OC)n3CC)CC(C)(C)COC(=O)[C@@H]2CCCN(N2)C1=O)C(C)C (atropisomer, axis not shown) [Example A422] | 1000 to 10000 | 1000 to 10000 | 100 to 1000 | < 5000 | 100 to 1000 | 100 to 1000 | 10 to 100 | 1000 to 10000 | 1000 to 10000 | 1000 to 10000 |

Source: patent publication US11566007B2, “Ras inhibitors” (Revolution Medicines, Inc., priority 2019, dated 2023)
